Laboratory results reported in ChEMBL document CHEMBL1201862, “PubChem BioAssay data set” (2004).
One block for each compound: values may come before it. Calls of active or inactive are those of the source.

Columns and labels:
[1] = target: T1, Neuropeptides B/W receptor type 1 (Homo sapiens, UniProt P48145); assay: GPR7 antagonist potency, late-stage follow-up, cell-based, fluorescence, dose response (AID 463251); assay type: functional
T1 sequence (P48145 whole entry): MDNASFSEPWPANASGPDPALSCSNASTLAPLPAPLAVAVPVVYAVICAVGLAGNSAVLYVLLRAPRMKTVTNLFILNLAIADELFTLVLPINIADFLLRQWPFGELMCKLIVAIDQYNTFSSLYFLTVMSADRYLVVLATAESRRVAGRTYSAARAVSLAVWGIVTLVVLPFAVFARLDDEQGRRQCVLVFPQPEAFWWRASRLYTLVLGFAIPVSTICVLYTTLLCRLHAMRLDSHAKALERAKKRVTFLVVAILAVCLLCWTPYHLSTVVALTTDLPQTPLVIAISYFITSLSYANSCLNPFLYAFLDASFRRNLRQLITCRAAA

[2] = target: Melanin-concentrating hormone receptor 1 (Homo sapiens, UniProt Q99705); assay: Late-stage fluorescence-based counterscreen for antagonists of the G-protein coupled receptor 7 (GPR7): cell-based dose response assay to identify antagonists of the melanin-concentrating hormone receptor 1 (MCHR1). [Related pubchem assays (depositor defined):AID1861, AID1880, AID1952, AID2148, AID2251, AID2257, AID485339]; assay type: functional;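 also: stimulated with 30 nM MCH peptide agonist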
[3] = target: Envelope glycoprotein gp160 (Human immunodeficiency virus 1, UniProt Q6QLK5); assay: inhibitors of HIV fusion peptide binding, primary screen, biochemical, uHTS, fluorescence dequenching (AID 1986)
[4] = target: T2, Tyrosine-protein phosphatase non-receptor type 22 (Homo sapiens, UniProt Q9Y2R2); assay: LYP (PTPN22) phosphatase inhibitor potency, SAR follow-up, biochemical, pCAP fluorogenic substrate, fluorescence, set 3 (AID 449727); assay type: functional
[5] = target: Tyrosine-protein phosphatase non-receptor type 12 (Homo sapiens, UniProt Q05209); assay: SAR Selectivity Analysis of small molecule inhibitors of PEST using pCAP in a fluorescence assay. [Related pubchem assays (depositor defined):AID1779, AID1784, AID2135]; assay type: functional
[6] = target: T2, Tyrosine-protein phosphatase non-receptor type 22; assay: SAR LYP1 Fluorescent Assay using OMFP substrate for In Vitro dose response studies - Set 3. [Related pubchem assays (depositor defined):AID1779, AID1784, AID2140, AID2686]; assay type: functional
[7] = Luminescence-based counterscreen assay for KLF5 inhibitors: dose response cell-based high throughput screening assay to identify cytotoxic compounds using the IEC-6 intestinal epithelial cell line. [Related pubchem assays: 1700 (Primary screen.), 1834 (Confirmation screen.), 1858 (Summary AID.), 1905 (Counterscreen.)]; assay type: functional
DLD-1 = assay: cytotoxicity in DLD-1 colorectal cells, late-stage follow-up, cytotoxicity control for KLF5 inhibitor project, cell-based, luminescence, round 1 (AID 485338); assay type: functional; conditions: Homo sapiens
Genome polyprotein = Genome polyprotein (dengue virus type 2, UniProt P29990); assay: Dengue-2 NS5 methyltransferase inhibitors, primary screen, biochemical, confirmation dose response (AID 588689); assay type: functional
Salmon testes DNA = assay: DNA intercalators displacing acridine orange, dose response, artefact control for KSHV LANA DNA-binding inhibitor project, biochemical, fluorescence polarization, cherry-picked samples, set 2 (AID 504727); set-up: species or system Salmonidae
ORF 73 = target: T3, ORF 73 (Human herpesvirus 8, UniProt O40947); assay: inhibitors of C-LANA binding to LBS DNA, dose response, biochemical, fluorescence polarization, cherry-picked samples (AID 504725); set-up: species or system Human gammaherpesvirus 8;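 also: fluorescence polarization of a labeled DNA duplex reporting LANA DNA binding; potency is for inhibitors that block LANA binding to the DNA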
T3 sequence (O40947 whole entry): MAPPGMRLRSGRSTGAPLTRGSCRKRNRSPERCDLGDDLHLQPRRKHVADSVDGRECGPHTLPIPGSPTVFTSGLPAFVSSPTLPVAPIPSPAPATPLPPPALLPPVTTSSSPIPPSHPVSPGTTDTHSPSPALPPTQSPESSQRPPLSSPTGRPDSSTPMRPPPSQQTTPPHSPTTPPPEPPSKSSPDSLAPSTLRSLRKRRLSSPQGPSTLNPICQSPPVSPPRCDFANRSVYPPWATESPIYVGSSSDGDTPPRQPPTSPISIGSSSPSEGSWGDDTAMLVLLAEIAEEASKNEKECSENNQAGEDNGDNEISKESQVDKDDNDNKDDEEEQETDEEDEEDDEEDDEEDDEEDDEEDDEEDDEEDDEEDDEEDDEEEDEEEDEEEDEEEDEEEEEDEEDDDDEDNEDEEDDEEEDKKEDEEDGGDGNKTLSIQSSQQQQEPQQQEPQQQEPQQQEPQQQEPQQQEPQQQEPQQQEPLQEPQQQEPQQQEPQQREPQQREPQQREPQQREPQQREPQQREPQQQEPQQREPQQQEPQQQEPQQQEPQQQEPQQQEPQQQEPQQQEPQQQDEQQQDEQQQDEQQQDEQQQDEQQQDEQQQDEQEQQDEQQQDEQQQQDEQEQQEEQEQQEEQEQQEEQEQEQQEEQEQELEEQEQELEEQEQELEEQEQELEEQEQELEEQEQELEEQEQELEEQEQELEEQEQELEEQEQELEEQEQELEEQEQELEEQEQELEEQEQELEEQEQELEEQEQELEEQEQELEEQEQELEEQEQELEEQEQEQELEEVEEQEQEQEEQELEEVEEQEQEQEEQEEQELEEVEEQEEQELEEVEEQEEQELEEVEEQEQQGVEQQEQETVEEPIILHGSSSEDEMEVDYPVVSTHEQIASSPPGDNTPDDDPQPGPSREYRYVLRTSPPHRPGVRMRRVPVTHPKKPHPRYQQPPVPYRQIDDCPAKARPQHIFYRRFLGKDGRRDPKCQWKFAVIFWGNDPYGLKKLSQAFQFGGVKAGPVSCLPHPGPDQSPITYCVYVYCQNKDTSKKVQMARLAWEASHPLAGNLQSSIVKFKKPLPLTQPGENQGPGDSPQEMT

[8] = target: T4, Rac GTPase-activating protein 1 (Homo sapiens, UniProt Q9H0H5); assay: MgcRacGAP GTPase-activating activity inhibitors, confirmation, biochemical, ADP Hunter fluorescence, primary and confirmatory (AID 624330); assay type: functional
T4 sequence (Q9H0H5 whole entry): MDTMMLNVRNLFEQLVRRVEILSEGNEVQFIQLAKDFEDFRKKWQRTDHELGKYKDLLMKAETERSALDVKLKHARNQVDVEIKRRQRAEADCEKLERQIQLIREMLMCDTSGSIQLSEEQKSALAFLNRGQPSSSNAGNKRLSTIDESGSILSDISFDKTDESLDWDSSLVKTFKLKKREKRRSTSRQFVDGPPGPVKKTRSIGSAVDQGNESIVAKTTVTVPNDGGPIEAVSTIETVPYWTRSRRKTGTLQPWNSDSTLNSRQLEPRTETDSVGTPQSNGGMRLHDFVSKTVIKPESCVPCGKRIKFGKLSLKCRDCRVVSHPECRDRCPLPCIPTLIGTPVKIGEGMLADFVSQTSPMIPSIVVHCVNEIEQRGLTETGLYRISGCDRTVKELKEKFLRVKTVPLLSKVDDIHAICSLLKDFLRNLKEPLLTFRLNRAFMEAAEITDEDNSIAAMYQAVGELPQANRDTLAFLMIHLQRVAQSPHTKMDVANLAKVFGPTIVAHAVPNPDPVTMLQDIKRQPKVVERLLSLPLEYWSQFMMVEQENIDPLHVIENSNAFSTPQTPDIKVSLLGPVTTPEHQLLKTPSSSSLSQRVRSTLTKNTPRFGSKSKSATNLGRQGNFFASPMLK

[9] = target: T5, Small ubiquitin-related modifier 1 (Homo sapiens, UniProt P63165); assay: inhibitors of SUMO1 partner interactions, dose response, biochemical, FRET (AID 624383); assay type: functional; conditions: read-out: IC50_Mean
[10] = target: T5, Small ubiquitin-related modifier 1; assay: inhibitors of SUMO1 peptide binding, dose response, biochemical, fluorescence polarization, uHTS hits (AID 624382); assay type: functional; conditions: read-out: IC50_Mean
[11] = target: G-protein coupled receptor 55 (Homo sapiens, UniProt Q9Y2T6); assay: GPR55 agonists via beta-arrestin recruitment, primary screen, imaging, U2OS cells, beta-arrestin-GFP redistribution (AID 1961); assay type: functional
Hexokinase = Hexokinase (Trypanosoma brucei, UniProt Q38C41); assay: Confirmation assay for inhibitors of Trypanosoma brucei hexokinase 1-Analogue-first series. [Related pubchem assays (depositor defined):AID1430, AID1632, AID2516, AID2560, AID2579, AID2600, AID449725, AID492951]; assay type: functional
[12] = Fluorescence-based cell-based high throughput dose response assay for inhibitors of the interaction of nucleotide-binding oligomerization domain containing 2 (NOD2) and the receptor-interacting serine-threonine kinase 2 (RIPK2).; assay type: functional; conditions: Homo sapiens
Beta Lactamase = Beta Lactamase (Pseudomonas aeruginosa, UniProt Q932Y6); assay: beta-lactamase reporter inhibitor potency, dose response, artefact control for NOD2-RIPK2 interaction inhibitor project, BLA reporter cells, FRET fluorescence (AID 651552); assay type: functional, cell-based
[13] = target: Glucose-6-phosphate 1-dehydrogenase (Homo sapiens, UniProt P11413); assay: human G6PD enzyme inhibitors, dose response, selectivity assay for P. falciparum G6PD inhibitor project, biochemical, fluorescence (AID 504792); assay type: functional
Integrin alpha-L = Integrin alpha-L (Mus musculus, UniProt P24063); assay: modulators of CD8 T cell-vesicle binding, dose response, powder samples, mouse 2C CD8+ cells (AID 504565); assay type: functional
T-cell = assay: inhibitors of CD8+ T cell–vesicle binding, dose response, mouse 2C CD8+ T cells, flow cytometry (AID 485284); assay type: functional

T5 sequence (P63165 whole entry): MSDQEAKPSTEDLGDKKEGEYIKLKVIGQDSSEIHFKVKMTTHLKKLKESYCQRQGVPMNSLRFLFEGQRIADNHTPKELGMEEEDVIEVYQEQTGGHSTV
T2 sequence (Q9Y2R2 whole entry): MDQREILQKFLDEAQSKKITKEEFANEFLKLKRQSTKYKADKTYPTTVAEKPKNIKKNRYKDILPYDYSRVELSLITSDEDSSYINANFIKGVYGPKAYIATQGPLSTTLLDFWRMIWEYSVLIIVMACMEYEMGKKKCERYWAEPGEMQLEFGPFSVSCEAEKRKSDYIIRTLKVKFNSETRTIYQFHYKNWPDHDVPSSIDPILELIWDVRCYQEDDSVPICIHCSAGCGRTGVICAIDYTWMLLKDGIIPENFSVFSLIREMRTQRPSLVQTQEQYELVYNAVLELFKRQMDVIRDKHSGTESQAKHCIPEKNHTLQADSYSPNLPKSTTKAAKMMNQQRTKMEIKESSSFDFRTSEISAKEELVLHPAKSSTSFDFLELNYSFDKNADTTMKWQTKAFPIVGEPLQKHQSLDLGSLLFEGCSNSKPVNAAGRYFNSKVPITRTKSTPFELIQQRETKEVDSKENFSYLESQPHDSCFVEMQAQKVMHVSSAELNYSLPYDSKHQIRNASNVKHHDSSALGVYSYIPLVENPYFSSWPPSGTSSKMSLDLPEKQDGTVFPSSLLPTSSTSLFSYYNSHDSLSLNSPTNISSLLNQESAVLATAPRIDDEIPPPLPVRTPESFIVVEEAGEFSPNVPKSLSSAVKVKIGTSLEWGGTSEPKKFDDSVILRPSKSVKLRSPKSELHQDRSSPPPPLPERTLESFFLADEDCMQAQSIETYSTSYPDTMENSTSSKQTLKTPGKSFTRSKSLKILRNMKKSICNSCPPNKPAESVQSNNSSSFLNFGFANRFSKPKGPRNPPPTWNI
Hexokinase, sequence (Q38C41 whole entry, the tested form may be a part): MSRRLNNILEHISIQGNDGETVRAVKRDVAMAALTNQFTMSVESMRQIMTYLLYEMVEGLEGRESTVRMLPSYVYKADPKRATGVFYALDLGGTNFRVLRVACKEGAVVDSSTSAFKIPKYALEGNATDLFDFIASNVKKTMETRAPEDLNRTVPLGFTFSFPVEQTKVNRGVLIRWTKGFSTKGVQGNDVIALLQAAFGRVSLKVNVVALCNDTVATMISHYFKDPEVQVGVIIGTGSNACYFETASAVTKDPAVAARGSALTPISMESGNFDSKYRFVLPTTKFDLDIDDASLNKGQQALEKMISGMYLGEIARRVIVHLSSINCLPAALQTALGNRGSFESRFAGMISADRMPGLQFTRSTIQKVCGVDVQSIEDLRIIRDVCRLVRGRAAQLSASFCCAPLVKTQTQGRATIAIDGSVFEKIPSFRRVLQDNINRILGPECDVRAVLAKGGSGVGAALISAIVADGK
Genome polyprotein, sequence (P29990 2492-3391 limits assumed): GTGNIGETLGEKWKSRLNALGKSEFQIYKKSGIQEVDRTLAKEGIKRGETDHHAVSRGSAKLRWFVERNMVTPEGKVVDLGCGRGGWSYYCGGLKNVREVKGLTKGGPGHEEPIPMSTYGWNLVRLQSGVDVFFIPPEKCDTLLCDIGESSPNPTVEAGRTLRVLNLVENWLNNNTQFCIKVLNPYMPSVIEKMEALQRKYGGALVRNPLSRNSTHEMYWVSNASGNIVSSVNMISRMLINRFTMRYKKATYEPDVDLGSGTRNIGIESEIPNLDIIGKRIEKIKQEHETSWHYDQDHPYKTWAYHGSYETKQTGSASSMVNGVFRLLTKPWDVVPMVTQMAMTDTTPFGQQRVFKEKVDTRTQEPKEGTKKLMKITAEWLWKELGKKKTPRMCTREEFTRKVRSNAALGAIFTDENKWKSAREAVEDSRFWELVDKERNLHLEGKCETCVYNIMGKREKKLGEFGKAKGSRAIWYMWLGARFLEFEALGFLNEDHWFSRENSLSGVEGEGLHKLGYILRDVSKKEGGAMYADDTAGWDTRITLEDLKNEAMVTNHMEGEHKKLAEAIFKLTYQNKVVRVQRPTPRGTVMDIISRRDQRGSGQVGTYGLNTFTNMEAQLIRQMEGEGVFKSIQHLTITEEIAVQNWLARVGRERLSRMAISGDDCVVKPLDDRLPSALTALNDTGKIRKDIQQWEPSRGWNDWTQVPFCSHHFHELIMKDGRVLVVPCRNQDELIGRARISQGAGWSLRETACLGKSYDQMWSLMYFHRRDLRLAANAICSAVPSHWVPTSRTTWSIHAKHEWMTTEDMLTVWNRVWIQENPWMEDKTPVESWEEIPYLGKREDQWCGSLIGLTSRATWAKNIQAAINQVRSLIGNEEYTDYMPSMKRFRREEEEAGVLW
Integrin alpha-L, sequence (P24063 whole entry): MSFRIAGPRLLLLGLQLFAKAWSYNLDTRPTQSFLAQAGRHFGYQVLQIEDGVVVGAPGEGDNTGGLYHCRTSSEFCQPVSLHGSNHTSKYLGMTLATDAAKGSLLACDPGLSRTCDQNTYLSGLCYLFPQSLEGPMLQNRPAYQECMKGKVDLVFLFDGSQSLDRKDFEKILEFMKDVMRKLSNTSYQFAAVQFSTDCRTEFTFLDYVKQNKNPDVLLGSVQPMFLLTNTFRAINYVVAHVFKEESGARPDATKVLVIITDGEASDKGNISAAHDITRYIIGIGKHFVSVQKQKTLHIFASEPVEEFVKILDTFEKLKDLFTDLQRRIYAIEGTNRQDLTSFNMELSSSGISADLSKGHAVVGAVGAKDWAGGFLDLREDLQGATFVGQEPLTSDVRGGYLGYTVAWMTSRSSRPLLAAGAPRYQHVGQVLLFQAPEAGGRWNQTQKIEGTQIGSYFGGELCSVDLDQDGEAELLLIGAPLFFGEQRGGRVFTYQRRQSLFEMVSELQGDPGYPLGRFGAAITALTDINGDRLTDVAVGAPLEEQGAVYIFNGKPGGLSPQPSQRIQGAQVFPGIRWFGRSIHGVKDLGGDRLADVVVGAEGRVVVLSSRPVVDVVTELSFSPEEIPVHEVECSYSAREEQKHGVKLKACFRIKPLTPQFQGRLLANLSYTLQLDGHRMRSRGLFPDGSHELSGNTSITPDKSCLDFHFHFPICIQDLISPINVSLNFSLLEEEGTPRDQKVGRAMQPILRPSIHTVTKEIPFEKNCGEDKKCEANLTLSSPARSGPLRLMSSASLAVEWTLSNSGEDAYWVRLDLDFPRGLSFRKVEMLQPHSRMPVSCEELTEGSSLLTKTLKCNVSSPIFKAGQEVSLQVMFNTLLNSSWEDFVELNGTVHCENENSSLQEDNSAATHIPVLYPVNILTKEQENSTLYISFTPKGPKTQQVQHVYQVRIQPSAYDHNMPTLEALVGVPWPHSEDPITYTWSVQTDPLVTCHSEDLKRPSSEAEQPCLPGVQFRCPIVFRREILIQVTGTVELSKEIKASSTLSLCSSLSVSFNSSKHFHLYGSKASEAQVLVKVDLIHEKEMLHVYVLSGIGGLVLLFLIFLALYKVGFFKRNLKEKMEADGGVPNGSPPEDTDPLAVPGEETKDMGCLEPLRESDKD
Melanin-concentrating hormone receptor 1, sequence (Q99705 whole entry, the tested form may be a part): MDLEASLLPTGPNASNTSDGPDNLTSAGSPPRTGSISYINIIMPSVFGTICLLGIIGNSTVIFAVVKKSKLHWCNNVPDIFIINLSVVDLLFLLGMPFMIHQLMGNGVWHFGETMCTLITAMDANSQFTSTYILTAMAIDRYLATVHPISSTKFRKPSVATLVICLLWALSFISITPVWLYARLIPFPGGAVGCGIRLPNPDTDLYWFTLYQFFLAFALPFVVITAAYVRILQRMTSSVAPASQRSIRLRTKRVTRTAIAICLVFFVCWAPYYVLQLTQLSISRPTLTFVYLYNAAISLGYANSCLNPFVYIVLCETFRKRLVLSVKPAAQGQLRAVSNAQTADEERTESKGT
G-protein coupled receptor 55, sequence (Q9Y2T6 whole entry): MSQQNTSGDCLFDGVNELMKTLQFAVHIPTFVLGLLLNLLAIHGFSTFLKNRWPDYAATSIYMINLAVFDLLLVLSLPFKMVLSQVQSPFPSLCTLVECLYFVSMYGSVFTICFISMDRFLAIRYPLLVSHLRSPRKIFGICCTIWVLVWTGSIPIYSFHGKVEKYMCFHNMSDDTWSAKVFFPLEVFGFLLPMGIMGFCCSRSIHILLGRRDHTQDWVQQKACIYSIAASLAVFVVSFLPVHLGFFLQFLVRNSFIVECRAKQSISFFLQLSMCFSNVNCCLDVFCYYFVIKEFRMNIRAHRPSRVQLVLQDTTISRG
Tyrosine-protein phosphatase non-receptor type 12, sequence (Q05209 whole entry): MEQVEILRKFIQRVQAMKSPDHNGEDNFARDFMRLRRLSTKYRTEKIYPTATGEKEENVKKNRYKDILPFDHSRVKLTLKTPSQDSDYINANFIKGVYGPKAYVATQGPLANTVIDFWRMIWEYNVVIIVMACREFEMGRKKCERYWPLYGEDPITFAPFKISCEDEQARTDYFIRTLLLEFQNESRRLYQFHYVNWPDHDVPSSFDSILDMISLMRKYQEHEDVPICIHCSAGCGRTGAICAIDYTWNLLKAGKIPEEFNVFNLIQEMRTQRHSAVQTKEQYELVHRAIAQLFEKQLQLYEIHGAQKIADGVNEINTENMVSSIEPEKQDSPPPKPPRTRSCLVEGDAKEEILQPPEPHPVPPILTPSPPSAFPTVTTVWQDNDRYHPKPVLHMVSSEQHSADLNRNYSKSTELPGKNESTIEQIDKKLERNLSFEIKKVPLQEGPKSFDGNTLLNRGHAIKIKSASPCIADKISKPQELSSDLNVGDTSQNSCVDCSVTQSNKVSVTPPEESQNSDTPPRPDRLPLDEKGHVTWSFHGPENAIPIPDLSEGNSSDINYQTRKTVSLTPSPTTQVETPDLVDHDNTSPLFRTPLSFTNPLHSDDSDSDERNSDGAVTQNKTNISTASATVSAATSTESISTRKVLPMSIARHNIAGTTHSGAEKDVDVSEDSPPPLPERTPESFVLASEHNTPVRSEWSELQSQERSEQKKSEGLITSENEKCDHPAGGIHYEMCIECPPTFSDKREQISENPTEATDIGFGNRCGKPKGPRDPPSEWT

Structure (SMILES): CCOC(=O)c1sc(NC(=O)c2cc3c(s2)CCC(C)C3)nc1C (stereo unspecified)
IC50 [7]: > 39.8 µM (not active) | IC50 (DLD-1): 19.3 µM (inactive)

Structure (SMILES): Nc1cccc2c(O)cc(S(=O)(=O)O)cc12
IC50 (Genome polyprotein): 42.7 µM (active) | AC50 (Salmon testes DNA): 132 µM (active) | AC50 (ORF 73): 29.7 µM (active) | IC50 [8]: 98.6 µM (active) | IC50 [9]: 5.35 µM (active) | IC50 [10]: > 66.6 µM (inactive)

Structure (SMILES): Cc1ccc(NC(=O)Cn2sc3ccccc3c2=O)cc1
IC50 (Hexokinase): 5.18 µM (active) | IC50 [12]: 5.7 µM (active) | IC50 (Beta Lactamase): 17.7 µM (inactive) | IC50 [13]: 15.1 µM (active)

Structure (SMILES): CCOC(=O)C1CCCN(S(=O)(=O)c2ccc(F)c(C(=O)Nc3ccc(F)c(F)c3)c2)C1 (stereo unspecified)
EC50 (Integrin alpha-L): 19.3 µM (active) | EC50 (T-cell): 0.202 µM (active)

Results, then the compound that gave them:

IC50 [1]: 2.8 µM (active) | IC50 [2]: 2.9 µM (active)
Structure (SMILES): O=C(C1CCCCN1Cc1cccc(Cl)c1)N1CCN(c2ccc([N+](=O)[O-])cc2)CC1 (stereo unspecified)

IC50 [3]: 6.31 µM (active)
Structure (SMILES): OCCOCCN1CCN(C(c2ccccc2)c2ccc(Cl)cc2)CC1 (stereo unspecified) [HYDROXYZINE PAMOATE]

IC50 [4]: 25.7 µM (active) | IC50 [5]: 3.85 µM (active) | IC50 [6]: 45.1 µM (active)
Structure (SMILES): CCOC(=O)C1=C(C)N=c2sc(=Cc3ccc(OCC(=O)O)cc3)c(=O)n2C1c1ccc(OC(C)C)cc1 (stereo unspecified)

EC50 [11]: 8.51 µM (active)
Structure (SMILES): Cc1ccc(C)n1-n1cnc2sc(-c3ccccc3)cc2c1=O
